This passage reports minimal effective dose results from patent US6300368A, “Anilide derivatives and antiarrhythmic agents containing the same” (priority 1998, dated 2001).

Where a name gives a salt, the structure may show the parent alone.

The test system of the test is aconitin-induced atrial fibrillation. Nature of the test: Aconitin-induced atrial fibrillation model in anaesthetized dogs (Pharmacological Trial 1). The test is classed as in vivo, dog. Conditions: Canis lupus familiaris; intravenous, anesthetized dogs, as hydrochloride; read-out: minimum dose level which suppresses atrial fibrillation. The protocol:
Pharmacological Trial 1: Evaluation of effectiveness in aconitin-induced atrial fibrillation model (dogs) Evaluation was performed according to K. Hashimoto (Jpn. J. Pharmacol., Vol. 46, 349-358, 1988) as follows:
Method: Dog was anesthetized and thoracotomy was made. Persistent atrial fibrillation was induced by placing a piece of filter paper impregnated with 0.5% aconitin solution (20 to 30 μl) on the right atrium. […] Onset and suppression of atrial fibrillation were monitored electrocardiographically by placing Ag--AgCl bipolar electrode on the right atrial auricle.
Results: Each compound in Examples 1 to 87 suppressed atrial fibrillation at least following dose level (all compounds were used in the form of hydrochloride).
Turning to `COCCNCCOc1ccc(NC(=O)CCOC)cc1.Cl` [Example 44, 4'-[2-[(2-Methoxyethyl)amino]ethoxy]-3-methoxy propananilide Hydrochloride], the minimal effective dose came out at 10 mg/kg.

As to `COCCNCCOc1ccc(NC(=O)c2ccoc2)cc1.Cl` [Example 45, 4'-[2-[(2-Methoxyethyl)amino]ethoxy]-3-furanilide Hydrochloride], the minimal effective dose turned out to be 10 mg/kg.

Take `CCOCCNCCOc1ccc(NC(=O)c2c(OC)cccc2OC)cc1` [Example 46, 4'-[2-[(2-Ethoxyethyl)amino]ethoxy]-2,6-dimethoxy Benzanilide]: the minimal effective dose amounted to 10 mg/kg.

Take `CCOCCNCCOc1ccc(NC(=O)c2ccccc2NS(C)(=O)=O)cc1` [Example 47, 4'-[2-[(2-Ethoxyethyl)amino]ethoxy]-2-(methanesulfonamido)benzanilide]: the minimal effective dose was determined as 3 mg/kg.

Consider `COCCCNCCOc1ccc(NC(=O)c2c(OC)cccc2OC)cc1` [Example 48, 2,6-Dimethoxy-4'-[2-[(3-methoxypropyl)amino]ethoxy]benzanilide], for which the minimal effective dose worked out at 3 mg/kg.

As for `COCCCNCCOc1ccc(NC(=O)c2ccccc2NS(C)(=O)=O)cc1.Cl` [Example 49, 2-Methanesulfonamido-4'-[2-[(3-methoxypropyl)amino]ethoxy]benzanilide Hydrochloride], the minimal effective dose was found to be 10 mg/kg.

In the case of `COc1cccc(OC)c1C(=O)Nc1ccc(OCCNC2CC2)cc1` [Example 50, 4'-[2-(Cyclopropylamino)ethoxy]-2,6-dimethoxybenzanilide], the minimal effective dose came out at 3 mg/kg.

Turning to `Cl.O=C(Nc1ccc(OCCNC2CC2)cc1)C1CCOC1` (stereo not shown) [Example 51, 4'-[2-(Cyclopropylamino)ethoxy]-2,3,4,5-tetrahydro-3-furanilide Hydrochloride], the minimal effective dose came out at 3 mg/kg.

As for `O=C(Nc1ccc(OCCNC2CC2)cc1)C1CCOCC1` [Example 52, 4'-[2-(Cyclopropylamino)ethoxy]-3,4,5,6-tetrahydro-2H-pyran-4-carboxanilideHydrochloride], the minimal effective dose was 3 mg/kg.

`COCCC(=O)Nc1ccc(OCCNC2CC2)cc1` [Example 53, 4'-[2-(Cyclopropylamino)ethoxy]-3-methoxypropananilide]: the minimal effective dose turned out to be 10 mg/kg.

Take `CS(=O)(=O)Nc1ccccc1C(=O)Nc1ccc(OCCNC2CCCC2)cc1` [Example 54]: the minimal effective dose was 10 mg/kg.

For `COc1cccc(OC)c1C(=O)Nc1ccc(OCCNC2CCCCC2)cc1` [Example 55, 4'-[2-(Cyclohexylamino)ethoxy]-2,6-dimethoxybenzanilide], the minimal effective dose came out at 0.3 mg/kg.

With `CCNCCOc1ccc(NC(=O)c2ccoc2)cc1OC.Cl` [Example 56, 4'-[2-(Ethylamino)ethoxy]-3'-methoxy-3-furanilide Hydrochloride], the minimal effective dose came to 10 mg/kg.

For `COCCC(=O)Nc1ccc(OCCNC(C)C)c(OC)c1` [Example 57, 4'-[2-(Isopropylamino)ethoxy]-3-methoxy-3-methoxypropananilide], the minimal effective dose stood at 10 mg/kg.

Regarding `COc1cc(NC(=O)c2ccccc2NS(C)(=O)=O)ccc1OCCNC(C)C` [Example 58, 4'-[2-(Isopropylamino)ethoxy]-2-meth anesulfonamido-3'-methoxybenzanilide], the minimal effective dose was 10 mg/kg.

On to `COc1cc(NC(=O)c2ccccc2S(C)(=O)=O)ccc1OCCNC(C)C.Cl` [Example 59, 4'-[2-(Isopropylamino)ethoxy]-2-methanesulfonyl-3'-methoxybenzanilide Hydrochloride], for which the minimal effective dose amounted to 10 mg/kg.

Regarding `COc1cc(NC(=O)c2ccoc2)ccc1OCCNC(C)C.Cl` [Example 60, 4'-[2-(Isopropylamino)ethoxy]-3'-methoxy-3-furanilide Hydrochloride], the minimal effective dose came to 10 mg/kg.

For the compound `COCCC(=O)Nc1ccc(OCCNC2CCCC2)c(OC)c1` [Example 61, 4'-[2-(Cyclopentylamino)ethoxy]-3'-methoxy-3-methoxypropananilide], the minimal effective dose amounted to 10 mg/kg.

Turning to `COc1cc(NC(=O)c2c(OC)cccc2OC)ccc1OCCNC1CCCC1.Cl` [Example 62, 4'-[2-(Cyclopentylamino)ethoxy]-2,6-dimethoxy-3'-methoxybenzanilide Hydrochloride], the minimal effective dose was found to be 10 mg/kg.

Regarding `CCN(CC)CCOc1ccc(NC(=O)c2c(OC)cccc2OC)cc1OC` [Example 63, 4'-[2-(Diethylamino)ethoxy]-2,6-dimethoxy-3-methoxybenzanilide], the minimal effective dose stood at 10 mg/kg.

Take `COc1cccc(OC)c1C(=O)Nc1ccc(OCCNC(C)C)cc1NS(C)(=O)=O` [Example 64, 4'-[2-(Isopropylamino)ethoxy]-2'-methanesulfonamido-2,6-dimethoxybenzaniideHydrochloride]: the minimal effective dose stood at 10 mg/kg.

For `COc1cccc(OC)c1C(=O)Nc1ccc(OCCNC(C)C)c(NS(C)(=O)=O)c1` [Example 65, 4'-[2-(Isopropylamino)ethoxy]-3'-methanesulfonamido-2,6-dimethoxybenzanilide], the minimal effective dose worked out at 10 mg/kg.

In the case of `CC(C)NCCOc1ccc(NC(=O)c2ccccc2NS(C)(=O)=O)cc1NS(C)(=O)=O.Cl` [Example 66, 4'-[2-(Isopropylamino)ethoxy]-2-methanesulfonamido-3'-(methanesulfonamido)benzanilide Hydrochloride], the minimal effective dose was found to be 3 mg/kg.

Consider `CC(C)NCCOc1ccc(NC(=O)c2ccoc2)cc1NS(C)(=O)=O.Cl` [Example 67, 4'-[2-(Isopropylamino)ethoxy]-3'-methanesulfonamido-3-furanilide Hydrochloride], for which the minimal effective dose turned out to be 10 mg/kg.

In the case of `CS(=O)(=O)Nc1cc(NC(=O)c2ccccc2NS(C)(=O)=O)ccc1OCCNC1CCCC1.Cl` [Example 68, 4'-[2-(Cyclopentylamino)ethoxy]-2-methanesulfonamido-3'-(methanesulfonamido)benzanilide Hydrochloride], the minimal effective dose is 10 mg/kg.

In the case of `COc1cccc(OC)c1C(=O)Nc1ccc(OCCNC(C)C)cc1C.Cl` [Example 69, 4'-[2-(Isopropylamino)ethoxy]-2,6-dimethoxy-2'-methyl benzanilide Hydrochloride], the minimal effective dose amounted to 3 mg/kg.

For `Cc1cc(OCCNC(C)C)ccc1NC(=O)c1ccccc1NS(C)(=O)=O.Cl` [Example 70, 4'-[2-(Isopropylamino)ethoxy]-2-methanesulfonamido-2'-methylbenzanilide Hydrochloride], the minimal effective dose was determined as 3 mg/kg.

`COCCC(=O)Nc1ccc(OCCNC(C)C)cc1C` [Example 71, 4'-[2-(Isopropylamino)ethoxy]-3-methoxy-2'-methylpropananilide]: the minimal effective dose turned out to be 3 mg/kg.

In the case of `Cc1cc(OCCNC(C)C)ccc1NC(=O)c1ccoc1.Cl` [Example 72, 4'-[2-(Isopropylamino)ethoxy]-2'-methyl-3-furanilide Hydrochloride], the minimal effective dose turned out to be 3 mg/kg.

As to `CCN(CC)CCOc1ccc(NC(=O)c2c(OC)cccc2OC)c(C)c1` [Example 73, 4'-[2-(Diethylamino)ethoxy]-2-dimethoxy-2'-methyl Benzanilide], the minimal effective dose was found to be 3 mg/kg.

In the case of `COc1cccc(OC)c1C(=O)Nc1ccc(OCCNC(C)C)c(C)c1.Cl` [Example 74, 4'-[2-(Isopropylamino)ethoxy]-2,6-dimethoxy-3'-methylbenzanilide Hydrochloride], the minimal effective dose was 3 mg/kg.

As to `Cc1cc(NC(=O)c2ccccc2NS(C)(=O)=O)ccc1OCCNC(C)C.Cl` [Example 75, 4'-[2-(Isopropylamino)ethoxy]-2-methanesulfonamido-3'-methylbenzanilide Hydrochloride], the minimal effective dose amounted to 10 mg/kg.

On to `Cc1cc(NC(=O)c2ccccc2S(C)(=O)=O)ccc1OCCNC(C)C.Cl` [Example 76, 4'-[2-(Isopropylamino)ethoxy]-2-methanesulfonyl-3'-methylbenzanilide Hydrochloride], for which the minimal effective dose is 3 mg/kg.

Take `Cc1cc(NC(=O)C2CCOCC2)ccc1OCCNC(C)C.Cl` [Example 77, 4'-[2-(Isopropylamino)ethoxy]-3'-methyl-3,4,5,6-tetrahydro-2H-pyran-4-carboxanilide Hydrochloride]: the minimal effective dose was determined as 10 mg/kg.

With `COCCC(=O)Nc1ccc(OCCNC(C)C)c(C)c1.Cl` [Example 78, 4'-[2-(Isopropylamino)ethoxy]-3-methoxy-3'-methylpropananilide Hydrochloride], the minimal effective dose was 3 mg/kg.

For the compound `Cc1cc(NC(=O)c2ccoc2)ccc1OCCNC(C)C.Cl` [Example 79, 4'-[2-(Isopropylamino)ethoxy]-3'-methyl-3-furanilide Hydrochloride], the minimal effective dose was found to be 10 mg/kg.

Turning to `CCNCCOc1c(C)cc(NC(=O)c2ccccc2NS(C)(=O)=O)cc1C.Cl` [Example 80, 4'-[2-(Ethylamino)ethoxy]-2-methanesulfonamido-3',5'-dimethylbenzanilide Hydrochloride], the minimal effective dose worked out at 3 mg/kg.

For `CCNCCOc1c(C)cc(NC(=O)c2ccccc2S(C)(=O)=O)cc1C.Cl` [Example 81, 4'-[2-(Ethylamino)ethoxy]-2-methanesulfonyl-3',5'-dimethylbenzanilide Hydrochloride], the minimal effective dose was found to be 3 mg/kg.

On to `COc1cccc(OC)c1C(=O)Nc1cc(C)c(OCCNC(C)C)c(C)c1.Cl` [Example 82, 4'-[2-(Isopropylamino)ethoxy]-2,6-dimethoxy-3',5'-dimethyl benzanilide Hydrochloride], for which the minimal effective dose came to 10 mg/kg.

On to `Cc1cc(NC(=O)c2ccccc2S(C)(=O)=O)cc(C)c1OCCNC(C)C.Cl` [Example 83, 4'-[2-(Isopropylamino)ethoxy]-2-methanesulfonyl-3',5'-dimethylbenzanilide Hydrochloride], for which the minimal effective dose came to 10 mg/kg.
